Biological target: T1, human macrophage galactose-type lectin (hMGL) (Homo sapiens, UniProt Q8IUN9)
T1 sequence (Q8IUN9 1-316): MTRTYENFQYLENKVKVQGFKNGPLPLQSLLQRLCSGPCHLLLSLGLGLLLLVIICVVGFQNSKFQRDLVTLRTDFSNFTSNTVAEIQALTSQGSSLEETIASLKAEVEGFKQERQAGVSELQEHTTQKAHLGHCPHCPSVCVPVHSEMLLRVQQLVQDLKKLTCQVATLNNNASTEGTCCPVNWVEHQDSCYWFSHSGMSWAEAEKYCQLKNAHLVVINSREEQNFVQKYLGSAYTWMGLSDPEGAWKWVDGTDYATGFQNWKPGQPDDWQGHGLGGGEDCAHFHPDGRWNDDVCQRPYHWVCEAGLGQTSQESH
Assay: ITC analysis of binding of GalNAc and MUC1

[1] = 10 mM HEPES sodium salt, 50 mM NaCl, 2 mM CaCl2, pH 7.4, 298 K, one-site model

SMILES: CC(=O)N[C@H]1C(O)O[C@H](CO)[C@H](O)[C@@H]1O (mixture of isomers) [GalNAc, N-acetylgalactosamine]
- KA [1]: 68000 M⁻¹
- ΔG [1]: -6.59 kcal/mol
- −TΔS [1]: 4.97 kcal/mol
- n (stoichiometry) (complete saturation of hMGL, functional valency = 1/n, pH 7.4, 298 K): 0.99

From publication PMC11560554 (Chembiochem : a European journal of chemical biology, 2024)
